The IC50 is the concentration needed to halve the response being measured.

In test [1] the test system is p-p70 S6 Kinase (Thr389) in MCF-7 cells. Briefly: AlphaLISA Ultra pS6K1 assay. The note with it: Homo sapiens, 1.5 h; MCF7 cells, 90 min. In kind it is cell-based. In short, it runs like this:
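MCF-7 cells seeded 20–24 h, given fresh medium 2 h, then treated with compounds 90 min (0.5% DMSO final). Cells lysed, lysates frozen at −80 °C, then Thr389-phosphorylated S6K1 detected by AlphaLISA Ultra with acceptor beads 2 h, then donor beads 2 h.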
A general note: In Alpha technology, singlet oxygen from a donor bead excites a nearby acceptor bead.

Test [2] relates to pS6K1 T389 and pAkt S473 in PC3 cells. Put plainly: Western blot based pS6K1 and pAKT assay at 24 and 48 hour timepoints. In kind it is cell-based. The gist of the method: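 PC3 cells (500,000/well) were treated with compound for 24 to 48 h, then lysed in 1% Triton buffer. Equal protein from Bradford-normalized lysates was analysed by Western blot for pS6K1 T389 and pAkt S473 with Li-Cor infrared detection.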
(In general: Immunoblotting shows a protein as a band on a membrane.)

For test [3], the system named is p-Akt 1/2/3 (Ser473) in MCF-7 cells. Briefly: AlphaLISA Ultra pAKT assay. Format: cell-based. The note with it: Homo sapiens, 1.5 h; MCF7 cells, 90 min. The gist of the method: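 MCF-7 cells (16,000˜20,000 per well in 36 μL medium) were seeded in Corning 3701 plates for 20˜24 hour, refreshed with new medium for 90 minutes, then given 12 μL of 4× compound (0.5% final DMSO). Cells were lysed with 2× lysis buffer, and lysate was analyzed by AlphaLISA Ultra pAKT using acceptor and donor beads, read on an EnSpire reader.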

Another test deals with mTORC1 over mTORC2. Put plainly: mTORC1 over mTORC2 selectivity by comparing pS6K1 and pAKT IC50. In kind it is cell-based. The note with it: by comparing pS6K1 and pAKT IC50, 90 min. In short, it runs like this: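 MCF-7 cells were treated with compounds (0.5% final DMSO) for 90 minutes in one protocol and 2 hours in the other, then lysed. Phospho-signal in lysates was read by bead-based donor/acceptor proximity assay. pS6K1 and pAKT IC50 values were compared to judge mTORC1 over mTORC2 selectivity, at 90 min and at 24 hrs.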

For a further test, the system named is PC3 cells. The following applies: 1 or 24 hour treatment; cited from earlier work.
The test system of a further test is Lmna−/− mice. The following applies: short-term treatment; cited from earlier work.
The next test deals with human adipocytes. Details: dose or concentration left out as unconfirmed. The following applies: therapeutic concentration; cited from earlier work.

Turning to `CO[C@@H]1C[C@H](C[C@@H](C)[C@@H]2CC(=O)[C@H](C)/C=C(\C)[C@@H](O)[C@@H](OC)C(=O)[C@H](C)C[C@H](C)/C=C/C=C/C=C(\C)[C@@H](OC[C@@H]3COCCO3)C[C@@H]3CC[C@@H](C)[C@@](O)(O3)C(=O)C(=O)N3CCCC[C@H]3C(=O)O2)CC[C@H]1OCCO` [I-85, (1R,9S,12S,15R,16E,18R,19R,21R,23S,24E,26E,28E,30S,32S,35R)-30-[[(2S)-1,4-dioxan-2-yl]methoxy]-1,18-dihydroxy-12-[(1R)-2-[(1S,3R,4R)-4-(2-hydroxyethoxy)-3-methoxy-cyclohexyl]-1-methyl-ethyl]-19-methoxy-15,17,21,23,29,35-hexamethyl-11,36-dioxa-4-azatricyclo[30.3.1.04,9]hexatriaconta-16,24,26,28-tetraene-2,3,10,14,20-pentone], the IC50 was 0.001 to 0.01 µM in test [1] and at least 1 µM in test [3]. For the same compound, in test [2], the “mTORC1 selective @ 24 hrs” value was “Yes”. Further, the “mTORC1 selective @ 90 min” value in the test with mTORC1 over mTORC2 was “Yes”.

For `COCCO[C@@H]1CC[C@@H](C[C@@H](C)[C@@H]2CC(=O)[C@H](C)/C=C(\C)[C@@H](OC)[C@@H](OC)C(=O)[C@H](C)C[C@H](C)/C=C/C=C/C=C(\C)[C@@H](OCCOC3COC3)C[C@@H]3CC[C@@H](C)[C@@](O)(O3)C(=O)C(=O)N3CCCC[C@H]3C(=O)O2)C[C@H]1OC` [I-83, (1R,9S,12S,15R,16E,18R,19R,21R,23S,24E,26E,28E,30S,32S,35R)-1-hydroxy-18,19-dimethoxy-12-[(1R)-2-[(1S,3R,4R)-3-methoxy-4-(2-methoxyethoxy)cyclohexyl]-1-methyl-ethyl]-15,17,21,23,29,35-hexamethyl-30-[2-(oxetan-3-yloxy)ethoxy]-11,36-dioxa-4-azatricyclo[30.3.1.0^4,9]hexatriaconta-16,24,26,28-tetraene-2,3,10,14,20-pentone], the IC50 in test [1] and in test [3] was at least 1 µM in each case. In addition, the “mTORC1 selective @ 24 hrs” value in test [2] is “No”. Also, the “mTORC1 selective @ 90 min” value with mTORC1 over mTORC2 is given as “No”.

`COCCOCCO[C@H]1C[C@@H]2CC[C@@H](C)[C@@](O)(O2)C(=O)C(=O)N2CCCC[C@H]2C(=O)O[C@H]([C@H](C)C[C@@H]2CC[C@@H](OP(C)(C)=O)[C@H](OC)C2)CC(=O)[C@H](C)/C=C(\C)[C@@H](OC)[C@@H](OC)C(=O)[C@H](C)C[C@H](C)/C=C/C=C/C=C/1C` [I-34, (25E,27E,29E,30E,36R,37S,38R,39R,41S,43S,45S,46S,47R,48R,57R)-46-[(1R)-2-[(1S,3R,4R)-4-dimethylphosphoryloxy-3-methoxy-cyclohexyl]-1-methyl-ethyl]-57-hydroxy-47,48-dimethoxy-45-[2-(2-methoxyethoxy)ethoxy]-36,37,38,39,49,50-hexamethyl-66,67-dioxa-58-azatricyclohexatriaconta-25,27,29(49),30(50)-tetraene-51,52,53,54,55-pentone] displayed an IC50 in test [1] of 0.001 to 0.01 µM. Also, the “mTORC1 selective @ 24 hrs” value in test [2] is “Yes”.

With `CO[C@H]1C[C@@H]2CC[C@@H](C)[C@@](O)(O2)C(=O)C(=O)N2CCCC[C@H]2C(=O)O[C@H]([C@H](C)C[C@@H]2CC[C@@H](O)[C@H](OC)C2)CC(=O)[C@H](C)/C=C(\C)[C@@H](O)[C@@H](OC)C(=O)[C@H](C)C[C@H](C)/C=C/C=C/C=C/1C` [rapamycin], the “Akt phosphorylation (S473)” value with PC3 cells was “strongly decreased Akt phosphorylation”. In the test with Lmna−/− mice, the enhanced survival is reported as about 50%. In the test with human adipocytes, the “AKT (PKB) Ser473 phosphorylation” value was “reduced AKT (PKB) Ser473 phosphorylation” and the glucose uptake entry is “reduced glucose uptake”.

In turn, `COCCOCCO[C@H]1C[C@@H]2CC[C@@H](C)[C@@](O)(O2)C(=O)C(=O)N2CCCC[C@H]2C(=O)O[C@H]([C@H](C)C[C@@H]2CC[C@@H](O)[C@H](OC)C2)CC(=O)[C@H](C)/C=C(\C)[C@@H](OC)[C@@H](OC)C(=O)[C@H](C)C[C@H](C)/C=C/C=C/C=C/1C` [I-49, (23E,25E,27E,28E,34R,35S,36R,37R,39S,41S,43S,44S,45R,46R,55R)-55-hydroxy-44-[(1R)-2-[(1S,3R,4R)-4-hydroxy-3-methoxy-cyclohexyl]-1-methyl-ethyl]-45,46-dimethoxy-43-[2-(2-methoxyethoxy)ethoxy]-34,35,36,37,47,48-hexamethyl-64,65-dioxa-56-azatricyclohexatriaconta-23,25,27(47),28(48)-tetraene-49,50,51,52,53-pentone] yielded an IC50 in test [1] of 0.001 to 0.01 µM. Further, the “mTORC1 selective @ 24 hrs” value in test [2] is “Yes”.

On to `COCCOCCO[C@H]1C[C@@H]2CC[C@@H](C)[C@@](O)(O2)C(=O)C(=O)N2CCCC[C@H]2C(=O)O[C@H]([C@H](C)C[C@@H]2CC[C@@H](OC(F)F)[C@H](OC)C2)CC(=O)[C@H](C)/C=C(\C)[C@@H](O)[C@@H](OC)C(=O)[C@H](C)C[C@H](C)/C=C/C=C/C=C/1C` [I-4, (22E,24E,26E,27E,33R,34S,35R,36R,38S,40S,42S,43S,44R,45R,55R)-43-[(1R)-2-[(1S,3R,4R)-4-(difluoromethoxy)-3-methoxy-cyclohexyl]-1-methyl-ethyl]-44,55-dihydroxy-45-methoxy-42-[2-(2-methoxyethoxy)ethoxy]-33,34,35,36,46,47-hexamethyl-64,65-dioxa-56-azatricyclohexatriaconta-22,24,26(46),27(47)-tetraene-48,49,50,51,52-pentone], for which the IC50 in test [1] was in the range of 0.001 to 0.01 µM. For the same compound, the “mTORC1 selective @ 24 hrs” value in test [2] was “Yes”.

In turn, `COCCOCCO[C@H]1C[C@@H]2CC[C@@H](C)[C@@](O)(O2)C(=O)C(=O)N2CCCC[C@H]2C(=O)O[C@H]([C@H](C)C[C@@H]2CC[C@@H](OCCOC)[C@H](OC)C2)CC(=O)[C@H](C)/C=C(\C)[C@@H](OC)[C@@H](OC)C(=O)[C@H](C)C[C@H](C)/C=C/C=C/C=C/1C` [I-47, (24E,26E,28E,29E,37R,38S,39R,40R,42S,44S,46S,47S,48R,49R,58R)-58-hydroxy-48,49-dimethoxy-46-[2-(2-methoxyethoxy)ethoxy]-47-[(1R)-2-[(1S,3R,4R)-3-methoxy-4-(2-methoxyethoxy)cyclohexyl]-1-methyl-ethyl]-37,38,39,40,50,51-hexamethyl-66,67-dioxa-59-azatricyclohexatriaconta-24,26,28(50),29(51)-tetraene-52,53,54,55,56-pentone] gave a half-maximal inhibitory concentration (IC50) in test [1] of 0.001 to 0.01 µM. Further, the “mTORC1 selective @ 24 hrs” value in test [2] is on record as “Yes”.

For the compound `CO[C@@H]1/C(C)=C/[C@@H](C)C(=O)C[C@@H]([C@H](C)C[C@@H]2CC[C@@H](O)[C@H](OC)C2)OC(=O)[C@@H]2CCCCN2C(=O)C(=O)[C@]2(O)O[C@@H](CC[C@H]2C)C[C@H](OCCOC2COC2)/C(C)=C/C=C/C=C/[C@@H](C)C[C@@H](C)C(=O)[C@@H]1OC` [I-97, (1R,9S,12S,15R,16E,18R,19R,21R,23S,24E,26E,28E,30S,32S,35R)-1-hydroxy-12-[(1R)-2-[(1S,3R,4R)-4-hydroxy-3-methoxy-cyclohexyl]-1-methyl-ethyl]-18,19-dimethoxy-15,17,21,23,29,35-hexamethyl-30-[2-(oxetan-3-yloxy)ethoxy]-11,36-dioxa-4-azatricyclo[30.3.1.0^4,9]hexatriaconta-16,24,26,28-tetraene-2,3,10,14,20-pentone], the IC50 in test [1] and in test [3] was at least 1 µM in each case. The “mTORC1 selective @ 24 hrs” value in test [2] is given as “No”. The “mTORC1 selective @ 90 min” value in the test on mTORC1 over mTORC2 is given as “No”.

The record behind these values is patent US20220267352A1, “RAPAMYCIN ANALOGS AND USES THEREOF” (Anakuria Therapeutics, Inc., priority 2021, published 2022).
